Experimental data: patent US11298363B2, “Triazolobenzazepines as vasopressin V1a receptor antagonists” (RICHTER GEDEON NYRT., priority 2017, dated 2022)
Marks after values point to notes of the source that are not given here.

Legend:
[1] = molecular target: mouse V1a receptor (Mus musculus, UniProt Q62463); assay: Functional V1a in vivo test: inhibition of oxytocin-induced scratching behaviour; settings: mice
How it was run: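 Male NMRI mice received test substance or vehicle, then oxytocin 0.3 mg/kg s.c. Scratching was recorded by LABORAS after 1 h cage habituation. Inhibition was expressed as % between the saline (0%) and vehicle-plus-oxytocin (100%) group means, analysed by ANOVA with Tukey test.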

[2] = molecular target: mouse vasopressin V1a receptor (Mus musculus, UniProt Q62463); assay: Mouse vasopressin V1a receptor binding assay; settings: 1321N1 cell membranes; read-out: Ki (nM) on mV1a cell line
Description: Mouse Vasopressin V1a Receptor Binding Assay Cells and Radioligand
The immortalized 1321N1 cell line (B9/1321N1 clone) constitutively and stably expressing Mouse vasopressin V1a receptor vasopressin (8-L-Arginine), [Phenylalanyl-3,4,5-^3H(N)] labelled compound (Perkin Elmer Life and Analytical Sciences) as radioligand were used to determine the affinity of the prepared compounds.
Membrane-preparation: Membrane preparation of immortalized 1321N1 cells expressing the propagated mouse Vasopressin V1a receptor was made according to Jarvis's method (Jarvis et al., J Pharmacol Exp Ther […], 310:407-16). Cells were suspended in preparative buffer (50 mM Tris, 1 mM EDTA, 0.1 mM PMSF) and homogenized with glass homogenizing potter. To separate the raw membrane fraction two consecutive centrifugation procedures (40,000 g for 25 minutes at 4° C.) were executed, then the membrane was taken into the preparatory buffer during a final washing step, it was divided into aliquots which were stored at −80° C. until the time of measurement.
The protein content of the prepared membrane was determined according to Lowry's method using standard dilution line of bovine serum albumin (BSA) (Lowry et al., J Biol Chem 1951, 193:265-75).
To determine the final affinity value, the results of at least two independent experiments were taken into account.
Non-specific binding values were determined in the presence of an unlabeled 1.2×10^−6 M (Arg^8)-vasopressin. Samples were incubated in a total volume of 0.33 ml for 60 minutes at 27° C. Membrane-bound and free ligands were separated by filtration through a 0.5% polyethyleneimine-impregnated UniFilter® GF/B™ After drying the filter plates, 40 μl Microscint-20 (Packard) scintillation cocktail was added to the samples. Finally, radioactivity was measured using MicroBeta^2 Microplate Counter (Perkin Elmer).
The radioligand clamping ability of a substance is determined in at least two independent experiments. Specific radioligand binding can be defined as the difference between total and non-specific binding in the presence of a saturation amount of the unlabeled ligand or different concentrations of the substance to be tested. The results are given as a percentage of inhibition of the specific binding achieved in the presence of the substance to be tested.
The IC50 data (i.e. the concentration of the unknown substance which displaces 50% of specific bound radioligand) is calculated from the concentration-displacement curve using the sigmoid fitting mathematical method y=(A1−A2)/(1+(x/x0)p)+A2 with Origin 7.5. software (OriginLab Corporation, Northampton, USA). During fitting, the asymptotes are not fixed. The Ki values (inhibition constant) are given with Cheng-Prusoff equation Ki=IC50/[1+(L/KD)] wherein [L] is the radioligand concentration used in the experiment and [KD] is the affinity of the radioactively labelled ligand for the given receptor. The KD is determined beforehand using the Scatchard curve.

Sequence of mouse vasopressin V1a receptor (Q62463 whole entry): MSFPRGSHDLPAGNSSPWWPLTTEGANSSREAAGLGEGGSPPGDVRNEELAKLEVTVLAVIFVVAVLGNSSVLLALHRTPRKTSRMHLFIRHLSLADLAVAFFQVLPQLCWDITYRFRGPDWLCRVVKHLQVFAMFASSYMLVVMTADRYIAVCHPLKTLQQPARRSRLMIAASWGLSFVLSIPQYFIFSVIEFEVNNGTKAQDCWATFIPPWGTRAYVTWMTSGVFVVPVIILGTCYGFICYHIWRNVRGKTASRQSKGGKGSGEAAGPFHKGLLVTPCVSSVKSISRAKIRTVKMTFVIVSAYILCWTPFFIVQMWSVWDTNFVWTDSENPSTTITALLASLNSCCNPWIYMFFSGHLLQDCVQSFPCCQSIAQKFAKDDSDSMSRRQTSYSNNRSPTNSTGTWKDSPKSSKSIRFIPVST
Sequence of mouse V1a receptor (Q62463 whole entry): as above

Row | SMILES | inhibition (%) of oxytocin-induced scratching behaviour response ([1]; 10 mg/kg p.o. pretreatment) | Ki [2] | inhibition (%) of oxytocin-induced scratching behaviour response ([1]; after i.p. treatment (table title: 10 mg/kg))
1 | N[C@@H]1Cc2cc(Cl)ccc2-n2c(nnc2[C@H]2CC[C@H](Oc3ccccn3)CC2)C1 [Example 8, (5R)-8-chloro-1-[trans-4-(pyridin-2-yloxy)cyclohexyl]-5,6-dihydro-4H-[1,2,4]triazolo[4,3-a][1]benzazepine-5-amine] | 64% | 161 nM | 
2 | CC(=O)NC1Cc2cc(Cl)ccc2-n2c(nnc2[C@H]2CC[C@H](Oc3ccccn3)CC2)C1 (stereo partly drawn) [Example 9, N-{8-chloro-1-[trans-4-(pyridin-2-yloxy)cyclohexyl]-5,6-dihydro-4H-[1,2,4]triazolo[4,3-a][1]benzazepin-5-yl}acetamide] |  | 31 nM | 106* %
3 | O=C1Cc2cc(Cl)ccc2-n2c(nnc2[C@H]2CC[C@H](Oc3ccccn3)CC2)C1 [Example 54, 8-chloro-1-[trans-4-(pyrin-2-yloxy)cyclohexyl]-4H-[1,2,4]triazolo[4,3-a][1]benzazepin-5(6H)-one] | 70% | 43 nM | 
4 | OC1Cc2cc(Cl)ccc2-n2c(nnc2[C@H]2CC[C@H](Oc3ccccn3)CC2)C1 (stereo partly drawn) [Example 55, 8-chloro-1-[trans-4-(pyridin-2-yloxy)cyclohexyl]-5,6-dihydro-4H-[1,2,4]triazolo[4,3-a][1]benzazepin-5-ol] | 91% | 21 nM | 

Stronger by Ki [2], values ahead:

Row | inhibition (%) of oxytocin-induced scratching behaviour response ([1]; 10 mg/kg p.o. pretreatment) | Ki [2] | inhibition (%) of oxytocin-induced scratching behaviour response ([1]; after i.p. treatment (table title: 10 mg/kg)) | SMILES
5 | 84% | 12 nM |  | O[C@@H]1Cc2cc(Cl)ccc2-n2c(nnc2[C@H]2CC[C@H](Oc3ccccn3)CC2)C1 [Example 57, (5R)-8-chloro-1-[trans-4-(pyridin-2-yloxy)cyclohexyl]-5,6-dihydro-4H-[1,2,4]triazolo[4,3-a][1]benzazepin-5-ol]
6 | 99% | 0.6 nM |  | Brc1ccc2c(c1)CC1(Cc3nnc([C@H]4CC[C@H](Oc5ccccn5)CC4)n3-2)OCCO1 [Example 62, 8′-bromo-1′-[trans-4-(pyridin-2-yloxy)cyclohexyl]-4′H,6′H-spiro[1,3-dioxolane-2,5′ [1,2,4]triazolo[4,3-a][1]benzazepine]]
7 | 49% | 13 nM |  | c1ccc(O[C@H]2CC[C@H](c3nnc4n3-c3ccccc3CC3(C4)OCCO3)CC2)nc1 [Example 63, 1′-[trans-4-(pyridin-2-yloxy)cyclohexyl]-4′H,6′H-spiro[1,3-dioxolane-2,5′-[1,2,4]triazolo[4,3-a][1]benzazepine]]
